Reference: patent US11046697B2, “Compounds and compositions useful for treating disorders related to NTRK” (BLUEPRINT MEDICINES CORPORATION, priority 2015, dated 2021)
Where two headings read alike, the source gives them in different places.

What was measured:
[1] = tested on: KM12 Cliff (G595R) cell line; assay: NTRK G595R mutant cellular assay (CellTiter-Glo growth inhibition); format: cell-based; conditions: for IC50: 72 hr, CellTiter-Glo
Protocol: (§1) NTRK Wild Type and G595R Mutant Cellular Assays Protocol
(§2) KM12 wild type colon carcinoma cell line harboring the TPM3-NTRK1 fusion protein was obtained from the National Cancer Institute (NCI). This line has been previously shown to be dependent upon the NTRK activity derived from the NTRK fusion protein for growth and survival. […] Cells were first plated in 384-well plates at 1000 cells/well in complete media (10% FBS and 1% pen/strep) and incubated overnight at 37° C. Cells were then dosed with test articles at varying concentrations using the Bravo liquid handling system. […] Each compound was run in duplicate per plate. […] 72 hr after dosing, assay plates were developed using CellTiter-Glo (Promega) and resultant luminescence was read on the Envision plate reader. IC50 determinations were calculated using a 4-parameter curve fitting algorithm

[2] = tested on: KM12 wild type colon carcinoma cell line harboring the TPM3-NTRK1 fusion protein; assay: NTRK wild type cellular assay (CellTiter-Glo growth inhibition); format: cell-based; conditions: for IC50: 72 hr, CellTiter-Glo, read-out: KM12 (WT) IC50
Protocol: as §1, §2

[3] = molecular target: T1, wild type NTRK1 enzyme (Homo sapiens, UniProt P04629); assay: NTRK1 Wild Type Assay at 1 mM ATP; format: biochemical
T1 construct: purchased BPS Bioscience 40280
Protocol: NTRK1 Wild Type Assay at 1 mM ATP
The reaction was stopped by the addition of 70 μL of Stop buffer (100 mM HEPES pH 7.5, 0.015% Brij 35, 35 mM EDTA and 0.2% of Coating Reagent 3 (Caliper Lifesciences)). The plate was then read on a Caliper EZReader 2 (protocol settings: −1.7 psi, upstream voltage −500, downstream voltage −3000, post sample sip 35s).

[4] = 1 mM ATP, read-out: Enz NTRK1 IC50

T1 sequence (P04629 440-796 limits assumed): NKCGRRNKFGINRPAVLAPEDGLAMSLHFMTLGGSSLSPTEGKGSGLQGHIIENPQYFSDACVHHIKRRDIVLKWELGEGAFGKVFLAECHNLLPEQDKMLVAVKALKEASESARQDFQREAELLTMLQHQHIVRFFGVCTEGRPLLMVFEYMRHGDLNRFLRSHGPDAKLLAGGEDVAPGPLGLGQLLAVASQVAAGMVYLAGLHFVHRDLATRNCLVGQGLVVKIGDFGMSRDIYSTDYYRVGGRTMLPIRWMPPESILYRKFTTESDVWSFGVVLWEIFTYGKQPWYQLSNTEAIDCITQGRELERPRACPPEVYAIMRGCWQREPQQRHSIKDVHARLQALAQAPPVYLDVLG

SMILES | IC50 [1] [µM] | IC50 [2] [µM] | IC50 [3, 4] [µM] | IC50 ([1]; Homo sapiens, KM12, 72 h) [µM] | IC50 ([2]; Homo sapiens, KM12, 72 h) [µM] | GI50 ([1]; G595R mutant NTRK fusion cells) [µM] | GI50 ([2]; wild-type NTRK fusion cells, read-out: NTRK wt Cellular GI50) [µM] | IC50 ([3]; wild-type NTRK enzyme, read-out: NTRK wt Enzyme Assay IC50) [µM]
CN(Cc1cc(F)cc(C#N)c1)C(=O)c1n[nH]c2ncnc(NC3CCC(O)C3O)c12 (stereo not drawn) [Compound 44] | 0.1 to 1 | 0.01 to 0.1 | 0.01 to 0.1 | – | – | – | – | –
CN(Cc1cc(F)cnc1Cl)C(=O)c1n[nH]c2ncnc(N[C@@H]3CC[C@@H](O)[C@H]3O)c12 [Compound 60] | – | – | 0.01 to 0.1 | 0.01 to 0.1 | 0.01 to 0.1 | – | – | –
O=C(c1n[nH]c2ncnc(N[C@@H]3CC[C@@H](O)[C@H]3O)c12)N1C[C@@H](F)C[C@@H]1c1cc(F)ccc1OC(F)(F)F [Compound 240] | – | – | < 0.01 | < 0.01 | < 0.01 | – | – | –
O=C(NCc1cc(F)ccc1F)c1n[nH]c2ncnc(NC3CCC(O)C3O)c12 (stereo not drawn) [Compound 9] | 0.1 to 1 | 0.01 to 0.1 | 0.01 to 0.1 | – | – | – | – | –
C[C@@H](NC(=O)c1n[nH]c2ncnc(N[C@@H]3COCC[C@H]3O)c12)c1cc(F)ccc1F [Compound 30] | – | – | 0.1 to 1 | 0.1 to 1 | 0.01 to 0.1 | – | – | –
O=C(c1n[nH]c2ncnc(N[C@H]3[C@H](O)[C@H](O)[C@@H]4C[C@@H]43)c12)N1C[C@@H](F)C[C@@H]1c1ccccc1 [Compound 153] | 0.01 to 0.1 | 0.01 to 0.1 | 0.01 to 0.1 | – | – | – | – | –
O=C(c1n[nH]c2ncnc(N[C@@H]3COC[C@@H](O)[C@H]3O)c12)N1C[C@@H](F)C[C@@H]1c1cc(F)cc(F)c1 [Compound 197] | – | – | < 0.01 | 0.01 to 0.1 | 0.01 to 0.1 | – | – | –
O=C(NC(CO)c1cc(F)ccc1F)c1n[nH]c2ncnc(NC3CCCC3O)c12 (stereo not drawn) [Compound 27] | 0.01 to 0.1 | 0.01 to 0.1 | < 0.01 | – | – | – | – | –
O=C(NCc1cc(F)ccc1F)c1n[nH]c2ncnc(NC3CC(F)CC3O)c12 (stereo not drawn) [Compound 16] | > 1 | > 1 | 0.1 to 1 | – | – | – | – | –
O=C(c1n[nH]c2ncnc(N[C@@H]3C[C@@H](O)C[C@H]3O)c12)N1C[C@@H](F)C[C@@H]1c1cc(F)ccc1F [Compound 86] | – | – | < 0.01 | < 0.01 | < 0.01 | – | – | –
COc1c(F)cc(F)cc1CNC(=O)c1n[nH]c2ncnc(N[C@@H]3COCC[C@H]3O)c12 [Compound 54] | – | – | 0.01 to 0.1 | 0.1 to 1 | 0.1 to 1 | – | – | –
CN(Cc1cccnc1F)C(=O)c1n[nH]c2ncnc(N[C@@H]3CC[C@@H](O)[C@H]3O)c12 [Compound 133] | 0.1 to 1 | 0.1 to 1 | 0.1 to 1 | – | – | – | – | –
O=C(NCc1cc(F)ccc1Cl)c1n[nH]c2ncnc(N[C@@H]3CC[C@@H](O)[C@H]3O)c12 [Compound 36] | – | – | 0.01 to 0.1 | 0.1 to 1 | 0.1 to 1 | – | – | –
O=C(c1n[nH]c2ncnc(NC3CCCC3O)c12)N1CC(F)CC1c1cncc(F)c1 (stereo not drawn) [Compound 46] | < 0.01 | < 0.01 | < 0.01 | – | – | – | – | –
O=C(c1n[nH]c2ncnc(NC3CCOCC3O)c12)N1CC(F)CC1c1cccc(F)c1F (stereo not drawn) [Compound 175] | 0.01 to 0.1 | 0.01 to 0.1 | < 0.01 | – | – | – | – | –
CN(Cc1cc(Cl)ccc1F)C(=O)c1n[nH]c2ncnc(N[C@@H]3CC[C@@H](O)[C@H]3O)c12 [Compound 148] | – | – | < 0.01 | < 0.01 | < 0.01 | – | – | –
O=C(NCc1cc(F)ccc1F)c1n[nH]c2ncnc(N[C@H]3[C@H](O)[C@H](O)[C@@H]4C[C@@H]43)c12 [Compound 25] | – | – | 0.01 to 0.1 | 0.1 to 1 | 0.01 to 0.1 | – | – | –
N#Cc1cc(F)cc([C@H]2C[C@H](F)CN2C(=O)c2n[nH]c3ncnc(N[C@@H]4CCCC(F)(F)[C@H]4O)c23)c1 [Compound 230] | – | – | < 0.01 | 0.01 to 0.1 | 0.01 to 0.1 | – | – | –

SMILES | IC50 [1] [µM] | IC50 [2] [µM] | IC50 [3, 4] [µM] | IC50 ([1]; Homo sapiens, KM12, 72 h) [µM] | IC50 ([2]; Homo sapiens, KM12, 72 h) [µM] | GI50 ([1]; G595R mutant NTRK fusion cells) [µM] | GI50 ([2]; wild-type NTRK fusion cells, read-out: NTRK wt Cellular GI50) [µM] | IC50 ([3]; wild-type NTRK enzyme, read-out: NTRK wt Enzyme Assay IC50) [µM]
O=C(c1n[nH]c2ncnc(N[C@@H]3CCOC[C@H]3O)c12)N1C[C@@H](F)C[C@@H]1c1cc(F)cnc1Cl [Compound 202] | – | – | < 0.01 | 0.01 to 0.1 | 0.01 to 0.1 | – | – | –
O=C(c1n[nH]c2ncnc(NC3CC(F)CC3O)c12)N1CC(F)CC1c1cc(F)ccc1F (stereo not drawn) [Compound 95] | – | – | < 0.01 | < 0.01 | < 0.01 | – | – | –
O=C(c1n[nH]c2ncnc(NC3CCOCC3O)c12)N1CC(F)CC1c1cc(F)ccc1Br (stereo not drawn) [Compound 183] | < 0.01 | < 0.01 | < 0.01 | – | – | – | – | –
O=C(c1n[nH]c2ncnc(N[C@@H]3CCOC[C@H]3O)c12)N1C[C@@H](F)C[C@@H]1c1cc(F)ccc1Cl [Compound 196] | – | – | < 0.01 | < 0.01 | < 0.01 | – | – | –
C[C@@H](NC(=O)c1n[nH]c2ncnc(N[C@@H]3CCC[C@H]3O)c12)c1cc(F)ccc1F [Compound 7] | – | – | 0.01 to 0.1 | 0.01 to 0.1 | 0.01 to 0.1 | – | – | –
O=C(c1n[nH]c2ncnc(N[C@@H]3CCC[C@H]3O)c12)N1CCC[C@@H]1c1cc(F)ccc1F [Compound 45, ((R)-2-(2,5-difluorophenyl)pyrrolidin-1-yl)(4-(((1R,2R)-2-hydroxycyclopentyl)amino)-1H-pyrazolo[3,4-d]pyrimidin-3-yl)methanone] | – | – | < 0.01 | < 0.01 | < 0.01 | – | – | –
O=C(c1n[nH]c2ncnc(NC3CCOCC3O)c12)N1CC(F)CC1c1cc(F)cc(F)c1 (stereo not drawn) [Compound 174] | < 0.01 | < 0.01 | < 0.01 | – | – | – | – | –
CN(Cc1cc(F)cnc1Cl)C(=O)c1n[nH]c2ncnc(NC3CC(F)CC3O)c12 (stereo not drawn) [Compound 151] | 0.01 to 0.1 | 0.01 to 0.1 | 0.01 to 0.1 | – | – | – | – | –
O=C(c1n[nH]c2ncnc(N[C@H]3[C@H](O)[C@H](O)[C@@H]4C[C@@H]43)c12)N1C[C@@H](F)C[C@@H]1c1cc(Cl)ccc1F [Compound 215] | < 0.01 | < 0.01 | < 0.01 | – | – | – | – | –
CC(C)NC(=O)C1CCC(n2c(NC(=O)c3ccc(F)cc3)nc3ccc(CN4CCC(C(C)(C)O)CC4)cc32)CC1 (stereo not drawn) [TSR-011] | – | – | – | – | – | 12 | 0.032 | 0.0023
O=C(NCc1cc(F)ccc1F)c1n[nH]c2ncnc(N[C@@H]3CCC[C@H]3O)c12 [Compound 1] | – | – | 0.01 to 0.1 | 0.01 to 0.1 | 0.01 to 0.1 | – | – | –
O=C(NCc1cc(F)ccc1F)c1n[nH]c2ncnc(N[C@@H]3CCOC[C@H]3O)c12 [Compound 11] | – | – | 0.1 to 1 | 0.1 to 1 | 0.1 to 1 | – | – | –
O=C(NCc1cc(F)cc(Cl)c1)c1n[nH]c2ncnc(NC3CCC(O)C3O)c12 (stereo not drawn) [Compound 38] | 0.1 to 1 | 0.1 to 1 | 0.1 to 1 | – | – | – | – | –
CN(Cc1cc(F)cnc1Cl)C(=O)c1n[nH]c2ncnc(NC3COCCC3O)c12 (stereo not drawn) [Compound 149] | 0.01 to 0.1 | 0.01 to 0.1 | < 0.01 | – | – | – | – | –
Cc1ccc(F)cc1CN(C)C(=O)c1n[nH]c2ncnc(NC3CCC(O)C3O)c12 (stereo not drawn) [Compound 23] | 0.01 to 0.1 | 0.01 to 0.1 | < 0.01 | – | – | – | – | –
CN(Cc1cc(F)ccc1C(F)(F)F)C(=O)c1n[nH]c2ncnc(N[C@@H]3CC[C@@H](O)[C@H]3O)c12 [Compound 99] | – | – | < 0.01 | < 0.01 | < 0.01 | – | – | –
O=C(NCc1cc(F)ccc1F)c1n[nH]c2ncnc(NC3CC(O)CC3O)c12 (stereo not drawn) [Compound 12] | – | – | 0.1 to 1 | > 1 | 0.1 to 1 | – | – | –
CN(Cc1cc(Cl)ccc1C#N)C(=O)c1n[nH]c2ncnc(N[C@@H]3CC[C@@H](O)[C@H]3O)c12 [Compound 156, N-(5-chloro-2-cyanobenzyl)-4-(((1R,2S,3R)-2,3-dihydroxycyclopentyl)amino)-N-methyl-1H-pyrazolo[3,4-d]pyrimidine-3-carboxamide] | – | – | 0.01 to 0.1 | < 0.01 | 0.01 to 0.1 | – | – | –
